In ChEMBL document CHEMBL1201862, “PubChem BioAssay data set” (2004):
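Interpolation was linear, between the two tested concentrations surrounding the appropriate level; five concentrations were tested over 48 hours in 96-well plates. GI50 = concentration required for 50% inhibition of growth.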 Activity calls are given as the source filed them. No stated cut-off is given here; in the data, active = GI50 up to about 1.1 µM and inactive = higher.

How the values were obtained:
Experiment in all cases: NCI anticancer screen, dose series, 48 h
UO-31 = test system: UO-31
BT-549 = test system: BT-549
A549 = test system: A549
MDA-MB-231 = test system: MDA-MB-231
M14 = test system: M14
MCF7 = test system: MCF7
NCI/ADR-RES = test system: NCI/ADR-RES
SW-620 = test system: SW-620
MDA-MB-435 = test system: MDA-MB-435
SNB-75 = test system: SNB-75
MOLT-4 = test system: MOLT-4
SF-268 = test system: SF-268
EKVX = test system: EKVX
K562 = test system: K562
SF-539 = test system: SF-539
NCI-H23 = test system: NCI-H23
OVCAR-8 = test system: OVCAR-8
SN12C = test system: SN12C
COLO 205 = test system: COLO 205
NCI-H460 = test system: NCI-H460
OVCAR-3 = test system: OVCAR-3
CAKI-1 = test system: CAKI-1
T47D = test system: T47D
SK-MEL-2 = test system: SK-MEL-2
RXF 393 = test system: RXF 393
SK-MEL-28 = test system: SK-MEL-28
PC-3 = test system: PC-3
NCI-H522 = test system: NCI-H522
UACC-257 = test system: UACC-257
CCRF-CEM = test system: CCRF-CEM
SNB-19 = test system: SNB-19
IGROV-1 = test system: IGROV-1
SK-OV-3 = test system: SK-OV-3
RPMI-8226 = test system: RPMI-8226
NCI-H226 = test system: NCI-H226
HOP-62 = test system: HOP-62
HCC 2998 = test system: HCC 2998
DU-145 = test system: DU-145
HL-60 = test system: HL-60
HT-29 = test system: HT-29
OVCAR-4 = test system: OVCAR-4
KM12 = test system: KM12
HCT-15 = test system: HCT-15
HOP-92 = test system: HOP-92
OVCAR-5 = test system: OVCAR-5
786-0 = test system: 786-0
SR = test system: SR
HCT-116 = test system: HCT-116
U-251 = test system: U-251
Hs-578T = test system: Hs-578T
UACC-62 = test system: UACC-62
SK-MEL-5 = test system: SK-MEL-5
SF-295 = test system: SF-295
TK-10 = test system: TK-10
ACHN = test system: ACHN
A498 = test system: A498
LOX IMVI = test system: LOX IMVI
MDA-N = test system: MDA-N

Measured: GI50

CCOC(=O)CSc1nc(-c2ccc(OC)cc2)c(C#N)c(=O)[nH]1
active: HL-60 0.0495 µM
inactive: UO-31 51.9 µM | BT-549 > 100 µM | A549 > 100 µM | MDA-MB-231 > 100 µM | M14 > 100 µM | MCF7 > 100 µM | NCI/ADR-RES > 100 µM | SW-620 > 100 µM | MDA-MB-435 > 100 µM | SNB-75 > 100 µM | MOLT-4 > 100 µM | SF-268 > 100 µM | EKVX > 100 µM | K562 > 100 µM | SF-539 > 100 µM | NCI-H23 > 100 µM | OVCAR-8 > 100 µM | SN12C > 100 µM | COLO 205 > 100 µM | NCI-H460 > 100 µM | OVCAR-3 > 100 µM | CAKI-1 > 100 µM | T47D > 100 µM | SK-MEL-2 > 100 µM | RXF 393 > 100 µM | SK-MEL-28 > 100 µM | PC-3 > 100 µM | NCI-H522 > 100 µM | UACC-257 > 100 µM | CCRF-CEM > 100 µM | SNB-19 > 100 µM | IGROV-1 > 100 µM | SK-OV-3 > 100 µM | RPMI-8226 > 100 µM | NCI-H226 > 100 µM | HOP-62 > 100 µM | HCC 2998 > 100 µM | DU-145 > 100 µM | HT-29 > 100 µM | OVCAR-4 > 100 µM | KM12 > 100 µM | HOP-92 > 100 µM | OVCAR-5 > 100 µM | 786-0 > 100 µM | SR 84.9 µM | HCT-116 > 100 µM | U-251 > 100 µM | Hs-578T > 100 µM | UACC-62 > 100 µM | SK-MEL-5 > 100 µM | SF-295 > 100 µM | TK-10 > 100 µM | ACHN > 100 µM | A498 > 100 µM
> 100 µM: HCT-15

NC(=O)C(=O)C(c1ccccc1)S(=O)(=O)Cc1ccccc1 (stereo unspecified)
> 100 µM: HCT-15
inactive: UO-31 > 100 µM | BT-549 > 100 µM | A549 > 100 µM | MDA-MB-231 > 100 µM | M14 > 100 µM | LOX IMVI > 100 µM | MCF7 > 100 µM | NCI/ADR-RES > 100 µM | SW-620 > 100 µM | MDA-MB-435 > 100 µM | SNB-75 > 82 µM | MOLT-4 16.5 µM | SF-268 > 100 µM | EKVX > 100 µM | K562 > 100 µM | SF-539 > 100 µM | NCI-H23 > 100 µM | OVCAR-8 > 100 µM | SN12C > 100 µM | COLO 205 > 100 µM | NCI-H460 > 100 µM | OVCAR-3 > 100 µM | CAKI-1 > 100 µM | T47D > 100 µM | SK-MEL-2 > 100 µM | RXF 393 > 100 µM | SK-MEL-28 > 100 µM | PC-3 > 100 µM | NCI-H522 > 100 µM | UACC-257 > 100 µM | CCRF-CEM > 100 µM | MDA-N > 100 µM | SNB-19 > 100 µM | IGROV-1 > 100 µM | SK-OV-3 > 100 µM | RPMI-8226 > 100 µM | NCI-H226 > 100 µM | HOP-62 > 100 µM | HCC 2998 > 100 µM | DU-145 > 100 µM | HT-29 > 100 µM | OVCAR-4 > 100 µM | KM12 > 100 µM | HOP-92 > 100 µM | OVCAR-5 > 100 µM | 786-0 > 100 µM | SR > 100 µM | HCT-116 > 100 µM | U-251 > 100 µM | UACC-62 > 100 µM | SK-MEL-5 > 100 µM | SF-295 > 100 µM | TK-10 > 100 µM | ACHN > 100 µM
